Data on seven compounds can be found in patent US20160022699A1, “COMBINATIONS AND METHODS FOR TREATING NON AGE-RELATED HEARING IMPAIRMENT IN A SUBJECT” (Washington University, priority 2012, published 2016).

“Also recorded” adds a separate entry of the source.

For test [1], the system named is noise-induced hearing loss (NIHL) in C57BL/6J mice. Nature of the test: NIHL treatment protocol: drug i.p. 24 hours after white noise (110 dB SPL, 30 min), ABR threshold shifts. The following applies: for ED50: Mus musculus, ip, 24 h, read-out: median effective dose (ED50) to treat noise-induced hearing loss; for drug effect on ABR threshold shift (two-way ANOVA), treatment / gender effect on ABR threshold shift (two-way ANOVA), treatment: 24 hours after noise.

The test system is the same in test [2]. Nature of the test: NIHL prevention protocol: drug i.p. two hours before white noise (110 dB SPL, 30 min), ABR thresholds / threshold shifts two weeks after noise. The following applies: for ED50: Mus musculus, ip, 2 h, read-out: median effective dose (ED50) to prevent noise-induced hearing loss; for drug effect on ABR threshold shift (two-way ANOVA), prevention: all dosages.

In test [3] the test system is NIHL in mice. The following applies: cited from earlier work; for prophylactic and therapeutic effects against NIHL: drinking water, three weeks before noise.
Test [4] has as its system NIHL in mice. The following applies: intraperitoneal injections; cited from earlier work.
For the next test, the system named is cultured auditory cells. The following applies: cited from earlier work.

On to `C[C@@H]1C[C@H]2[C@@H]3CCC4=CC(=O)C=C[C@]4(C)[C@@]3(F)[C@@H](O)C[C@]2(C)[C@@]1(O)C(=O)CO` [dexamethasone], for which the median effective dose (ED50) amounted to 96.3 mg/kg in test [1] and 39.4 mg/kg in test [2].
Turning to `CCC1(C)CC(=O)NC1=O` (stereo not drawn) [ethosuximide], in test [1], the “drug effect on ABR threshold shift (two-way ANOVA), treatment” value is on record as “statistically significant drug effects”; the “gender effect on ABR threshold shift (two-way ANOVA), treatment” value was “the gender effect was also significant; also recorded: gender difference was also observed”; the ED50 came out at 243 mg/kg. For the same compound, the “effect on NIHL (Tukey/Kramer post-hoc)” value in test [2] (60 mg/kg, two hours before noise) is “significantly enhanced NIHL”. In addition, the “effect on NIHL (Tukey/Kramer post-hoc)” value in test [2] (90 mg/kg, two hours before noise) was “significantly protected against NIHL”. Further, in test [2] (130 to 260 mg/kg, two hours before noise), the “effect on NIHL (Tukey/Kramer post-hoc)” value was “reduced to no significance”. The “median effective dose (ED50) to prevent noise-induced hearing loss” value in test [2] (i.p. two hours before noise, calculated with CompuSyn (Chou-Talalay)) is on record as “no ED50; also recorded: could not be obtained”. In test [2] (two hours before noise), the “gender effect on ABR threshold shift (two-way ANOVA), prevention” value is reported as “showed no gender differences” and the “drug effect on ABR threshold shift (two-way ANOVA), prevention” value is “statistically significant main effect of drug concentrations”. In addition, the “prophylactic and therapeutic effects against NIHL” value in the test with NIHL in mice [3] is “both prophylactic and therapeutic effects”.
Regarding `Fc1ccc(C(c2ccc(F)cc2)N2CCN(C/C=C/c3ccccc3)CC2)cc1` [flunarizine], the NIHL prophylactic function entry in the test on NIHL in mice [4] is given as “no NIHL prophylactic functions”. The cisplatin-induced cell death result in the test on cultured auditory cells is given as “inhibit cisplatin-induced death of cultured auditory cells”.
For the compound `C[C@H]1C[C@@H]2[C@H]([C@@H](O)C[C@@]3(C)[C@H]2CC[C@]3(O)C(=O)CO)[C@@]2(C)C=CC(=O)C=C12` [methylprednisolone], the 50% effective dose (ED50) in test [1] amounted to 95.6 mg/kg; in test [2] it was 525 mg/kg.
On to `COCC(=O)O[C@]1(CCN(C)CCCc2nc3ccccc3[nH]2)CCc2cc(F)ccc2[C@@H]1C(C)C` [mibefradil], for which the NIHL prophylactic function result in the test on NIHL in mice [4] is reported as “no NIHL prophylactic functions”.
On to `CN1C(=O)OC(C)(C)C1=O` [trimethadione], for which the “prophylactic and therapeutic effects against NIHL” value with NIHL in mice [3] is “both prophylactic and therapeutic effects”. For the same compound, in the test on NIHL in mice [3] (mouse, in vivo), the “gender dependence of therapeutic effect against NIHL” value was “observed only in male mice” and the “outer hair cell (OHC) protection” value was “OHC protection was observed”.
Take `NS(=O)(=O)Cc1noc2ccccc12` [zonisamide]: in test [1], the “drug effect on ABR threshold shift (two-way ANOVA), treatment” value is “no statistically significant drug effects”; the “gender effect on ABR threshold shift (two-way ANOVA), treatment” value was “the gender had no effects as well”; the ED50 came to 2540 mg/kg. Also, the ED50 in test [2] was 125 mg/kg. Moreover, in test [2] (two hours before noise), the “dosage dependence of NIHL prevention” value is listed as “clear dosage-dependent prevention of NIHL”; the “gender effect on ABR threshold shift (two-way ANOVA), prevention” value is recorded as “the gender had no effects; also recorded: showed no gender differences”; the “drug effect on ABR threshold shift (two-way ANOVA), prevention” value is reported as “statistically significant drug effects”.

One may read the ED50 as the dose at which the effect has come halfway, by size or by number of responders.
